Results as given in patent publication US11400104B2, “Skeletal removal of bisphosphonates” (The Regents of the University of California, priority 2016, dated 2022).
Entries after “also recorded” stand apart in the source; their conditions may differ.

Assays:
[1] = hydroxyapatite (HAP) binding affinity, relative retention times normalized to RIS; settings: FIG. 7
Procedure: FIG. 7 is a bar graph showing hydroxyapatite (HAP) binding affinity of Zoledronate (ZOL), ROX-RIS, 5-FAM-ZOL, and AF647-ZOL. Relative retention times were normalized to RIS.
Hydroxyapatite assays indicate that the FL-BPs generally retain substantial affinity for bone mineral that reflect the affinity of the BP component and to a lesser extent, the affinity of the conjugated fluorophore. Hydroxyapatite (Macro-Prep® Ceramic hydroxyapatite Type II […]) was obtained from Bio-Rad Laboratories, Inc. Hercules, Calif. Accurately weighed hydroxyapatite powder (1.4-1.6 mg) was suspended in a 4 mL clear vial containing the appropriate volume of assay buffer (0.05% (wt/vol) Tween20, 10 μM EDTA and 100 mM HEPES pH=7.4) for 3 hours. Hydroxyapatite was then incubated with increasing amounts of FAM-BP and ROX-BP (0, 25, 50, 100, 200, and 300 μM). Samples were gently shaken for 3 hours at 37° C. in appropriate volume of assay buffer (0.05% (wt/vol) Tween20, 10 μM EDTA and 100 mM HEPES pH=7.4). Subsequent to the equilibrium period, the vials were centrifuged at 10,000 rpm for 5 minutes to separate the solids and the supernatant. 0.3 mL of the supernatant was collected and the equilibrium solution concentration is measured by using Shimadzu UV-VIS spectrometer. For the calibration series, FL-BP probe standards were prepared by serial dilution from the stock solution with the same isotherm buffer to give the range from 0 to 400 μM. Calibration curves were constructed using standard solutions of the target FL-BPs. Fluorescent emission can also be used to calculate the binding parameters. Nonspecific binding was measured with a similar procedure in the absence of hydroxyapatite as control. Binding parameters (Kd and Bmax, represent the equilibrium dissociate constant and maximum number of binding sites, respectively) were calculated using the PRISM program (Graphpad, USA). The binding parameters of each compound was measured in 5 independent experiments. […]

[2] = system: mouse maxilla; experiment: intra-oral injection of AF647-ZOL into maxilla of mice pre-injected IV with FAM-ZOL, fluorescent biophotonics; assay type: in vivo
Procedure: FIG. 10 are representative images of mice maxilla. AF647-ZOL was orally injected into maxilla of mice pre-injected with 5-FAM-ZOL.
The mouse intra-oral injection protocol was established by using a Hamilton syringe with a 33-gauge needle. Under a surgical microscope, 2 μl solution was injected to the palatal gingiva of left first molar of mouse maxilla. After slow injection, the needle was left in the tissue for 3 minutes and then gently removed.
Using this method, 2 μl of 0 μM, 0.5 μM or 5.0 μM AF647-ZOL was injected to mouse maxillary oral mucosa to mice 6 days after retro-orbital IV injection of 100 μl of 50 μM FAM-ZOL. Mouse tissues were harvested 1 day after oral injection and maxillary bones were subjected to standardized fluorescent biophotonics image obtained using an excitation wavelength of 460 nm and a 515 nm filter (LAS3000, FUJIFILM Corp).

[3] = system: mouse femurs; experiment: AF647-ZOL signal in distant bone (femurs) in the BRONJ mouse model; assay type: in vivo
Procedure: AF647-ZOL was applied by intra-oral injection or IV injection 1 day prior to tooth extraction. FIG. 16B are images of mouse maxilla and the oral mucosa inflammation and swelling (white dotted lines, left and right panels) with various degrees of jawbone exposure (arrow) at the tooth extraction site of ZOL-treated mice (BRONJ control: n−4).
Mice received a bolus IV injection of ZOL (440 μg/Kg; 294 μM×100 μL=8.0 μg/animal) from retro-orbital venous plexus. […] The AF647-ZOL signal in distant bone was assessed in femurs.

- influence of the fluorophore on hydroxyapatite affinity [1]: small reduction
- AF647 signal at and around the injection site on the palatal bone ([2]; 2 μl of 0, 0.5 or 5.0 μM intra-oral, harvested 1 day after): dose dependent adsorption
Structure (SMILES): CC1(C)C(C=CC=CC=C2N(CCCS(=O)(=O)O)c3ccc(S(=O)(=O)O)cc3C2(C)CCCCCC(=O)NCC(O)C[n+]2ccn(CC(O)(P(=O)(O)O)P(=O)(O)O)c2)=[N+](CCCS(=O)(=O)O)c2ccc(S(=O)(=O)O)cc21 (stereo not drawn) [AF647-ZOL]
- displacement of pre-adsorbed FAM-ZOL in maxilla ([2]; FAM-ZOL 100 μl of 50 μM IV 6 days before AF647-ZOL intra-oral injection, qualitative): pre-adsorbed FAM-ZOL was removed; also recorded: Reduction of FAM-ZOL signal was observed qualitatively
- systemic distribution to the distant skeletal system (femur) ([2]; intra-oral injection): did not result in systemic distribution to the distant skeletal system
- AF647-ZOL signal in femurs ([3]; IV injection 500 μM×100 μL): clear AF647-ZOL signal; also recorded: clearly observed
- AF647-ZOL signal in femurs ([3]; intra-oral injection 250 μM×2 μL): not and did not result in a detectable fluorescent signal
